Laboratory results reported in the supplement of paper PMC10307832.

Legend:
Assay in all cases: relative viability (nuclei count vs DMSO), 5 days (fraction); higher = more cells survive
Avagacestat + Pemetrexed = compound: NC(=O)[C@@H](CCC(F)(F)F)N(Cc1ccc(-c2ncon2)cc1F)S(=O)(=O)c1ccc(Cl)cc1 [Avagacestat] + Nc1nc2[nH]cc(CCc3ccc(C(=O)N[C@@H](CCC(=O)O)C(=O)O)cc3)c2c(=O)[nH]1 [Pemetrexed] (partner 0.2 µM)
Summary of the method: (§1)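 Relative viability is defined as nuclei in treated wells over nuclei in vehicle wells. Duplicate plates were run and medians reported. Lung cancer cell lines in 1536-well plates were dosed by pin tool one day after seeding, with one drug or with a fixed anchor-drug dose plus five library-drug doses (not always all listed) in √10 steps, and nuclei were counted after 5 days.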

Avagacestat + OSI-027 = compound: NC(=O)[C@@H](CCC(F)(F)F)N(Cc1ccc(-c2ncon2)cc1F)S(=O)(=O)c1ccc(Cl)cc1 [Avagacestat] + COc1cccc2cc(-c3nc([C@H]4CC[C@H](C(=O)O)CC4)n4ncnc(N)c34)[nH]c12 [OSI-027] (partner 0.5 µM)
Summary of the method: as §1

Avagacestat + Foretinib = compound: NC(=O)[C@@H](CCC(F)(F)F)N(Cc1ccc(-c2ncon2)cc1F)S(=O)(=O)c1ccc(Cl)cc1 [Avagacestat] + COc1cc2c(Oc3ccc(NC(=O)C4(C(=O)Nc5ccc(F)cc5)CC4)cc3F)ccnc2cc1OCCCN1CCOCC1 [Foretinib] (partner 0.25 µM)
Summary of the method: as §1

Avagacestat + AZD7762 = compound: NC(=O)[C@@H](CCC(F)(F)F)N(Cc1ccc(-c2ncon2)cc1F)S(=O)(=O)c1ccc(Cl)cc1 [Avagacestat] + NC(=O)Nc1cc(-c2cccc(F)c2)sc1C(=O)N[C@H]1CCCNC1 [AZD7762] (partner 0.2 µM)
Summary of the method: as §1

Cell Line | relative viability (Avagacestat + Pemetrexed; first compound 0.08 µM) | relative viability (Avagacestat + Pemetrexed; first compound 0.253 µM) | relative viability (Avagacestat + Pemetrexed; first compound 0.8 µM) | relative viability (Avagacestat + Pemetrexed; first compound 2.53 µM) | relative viability (Avagacestat + Pemetrexed; first compound 8 µM) | relative viability (Avagacestat + OSI-027; first compound 0.08 µM) | relative viability (Avagacestat + OSI-027; first compound 0.253 µM) | relative viability (Avagacestat + OSI-027; first compound 0.8 µM) | relative viability (Avagacestat + OSI-027; first compound 2.53 µM) | relative viability (Avagacestat + OSI-027; first compound 8 µM) | relative viability (Avagacestat + Foretinib; first compound 0.08 µM) | relative viability (Avagacestat + Foretinib; first compound 0.253 µM) | relative viability (Avagacestat + Foretinib; first compound 0.8 µM) | relative viability (Avagacestat + Foretinib; first compound 2.53 µM) | relative viability (Avagacestat + Foretinib; first compound 8 µM) | relative viability (Avagacestat + AZD7762; first compound 0.08 µM) | relative viability (Avagacestat + AZD7762; first compound 0.253 µM) | relative viability (Avagacestat + AZD7762; first compound 0.8 µM) | relative viability (Avagacestat + AZD7762; first compound 2.53 µM) | relative viability (Avagacestat + AZD7762; first compound 8 µM)
COR-L 105 | 1.2 | 1.21 | 1.12 | 0.983 | 1.02 | 0.614 | 0.687 | 0.74 | 0.525 | 0.486 | 1.17 | 1.25 | 1.36 | 0.927 | 0.698 | – | – | – | – | –
LK-2 | 0.272 | 0.294 | 0.314 | 0.251 | 0.264 | 0.189 | 0.206 | 0.162 | 0.181 | 0.212 | 1.72 | 1.7 | 1.07 | 1.07 | 0.93 | 0.408 | 0.384 | 0.41 | 0.4 | 0.291
PC-14 | 0.137 | 0.142 | 0.134 | 0.124 | 0.136 | 1.19 | 0.888 | 0.749 | 0.599 | 0.74 | 1.1 | 1.08 | 1.1 | 0.956 | 0.817 | 0.53 | 0.568 | 0.581 | 0.39 | 0.392
SW 1573 | 0.99 | 1.01 | 0.925 | 0.887 | 0.85 | 0.8 | 0.654 | 0.806 | 0.61 | 0.446 | 0.917 | 0.866 | 0.88 | 0.867 | 1.02 | – | – | – | – | –
NCI-H2085 | 0.856 | 0.871 | 1.04 | 0.902 | 0.861 | 0.928 | 0.837 | 0.898 | 0.742 | 0.897 | 1.25 | 1.09 | 1.06 | 1.11 | 0.911 | 1.07 | 1.13 | 1.09 | 1.08 | 0.794
NCI-H441 | 0.269 | 0.252 | 0.272 | 0.271 | 0.298 | 0.859 | 0.72 | 0.704 | 0.589 | 0.462 | 0.975 | 1.29 | 1.04 | 1.14 | 0.956 | 1.02 | 1.23 | 1.37 | 1.35 | 0.877
NCI-H1648 | 0.572 | 0.505 | 0.451 | 0.467 | 0.505 | 0.266 | 0.273 | 0.271 | 0.255 | 0.232 | – | – | – | – | – | 0.603 | 0.564 | 0.548 | 0.46 | 0.48
NCI-H2126 | 0.67 | 0.687 | 0.698 | 0.605 | 0.683 | 0.847 | 0.721 | 0.703 | 0.616 | 0.669 | 1.53 | 1.21 | 1.34 | 1.06 | 1.02 | 1.02 | 0.979 | 1.01 | 0.912 | 1.02
LXF-289 | 0.986 | 0.947 | 0.936 | 0.905 | 0.799 | 0.817 | 0.757 | 0.703 | 0.673 | 0.804 | 1.04 | 0.957 | 0.992 | 0.982 | 0.893 | 1.13 | 1.08 | 1.09 | 1.16 | 0.971
HCC-44 | 0.733 | 0.68 | 0.706 | 0.66 | 0.639 | 0.474 | 0.457 | 0.673 | 0.528 | 0.499 | – | – | – | – | – | 0.923 | 1.04 | 1.03 | 1.01 | 1.18
EKVX | 0.5 | 0.462 | 0.529 | 0.439 | 0.373 | 0.675 | 0.687 | 0.72 | 0.461 | 0.659 | 0.859 | 0.742 | 1.08 | 0.798 | 0.795 | 0.699 | 0.779 | 0.818 | 0.633 | 0.624
NCI-H522 | 0.933 | 1.27 | 0.774 | 1.04 | 1.07 | 0.823 | 0.728 | 0.655 | 0.689 | 0.725 | – | – | – | – | – | 0.768 | 0.82 | 0.807 | 0.843 | 0.985
NCI-H1792 | 1.54 | 1.08 | 1.28 | 0.818 | 0.451 | 1.03 | – | 0.628 | – | 0.677 | – | – | – | – | – | 0.726 | 0.942 | 0.706 | 0.65 | 0.345
NCI-H661 | 0.953 | 1.01 | 0.92 | 0.86 | 0.909 | 0.786 | 0.775 | 0.694 | 0.704 | 0.669 | 1.04 | 1.17 | 1.07 | 0.974 | 1.08 | – | – | – | – | –
LCLC-103H | 0.448 | 0.412 | 0.433 | 0.456 | 0.486 | 0.488 | 0.531 | 0.438 | 0.409 | 0.406 | 0.803 | 0.849 | 0.757 | 0.56 | 0.784 | 0.815 | 0.759 | 0.837 | 0.68 | 0.688
NCI-H1793 | 0.907 | 1.03 | 1.07 | 0.94 | 0.785 | 0.327 | 0.338 | 0.373 | 0.233 | 0.249 | 0.686 | 0.693 | 0.854 | 0.473 | 0.619 | 0.619 | 0.474 | 0.373 | 0.346 | 0.228
HOP-62 | 0.344 | 0.359 | 0.329 | 0.312 | 0.29 | 1.16 | 0.895 | 0.737 | 0.609 | 0.63 | 1.29 | 1.2 | 1.17 | 0.948 | 0.996 | 0.811 | 0.714 | 0.62 | 0.53 | 0.47
HCC-827 | 0.304 | 0.271 | 0.296 | 0.221 | 0.257 | 0.892 | 0.688 | 0.818 | 0.668 | 0.703 | 1.08 | 1.12 | 1.15 | 1 | 1.03 | 0.193 | 0.188 | 0.216 | 0.161 | 0.188
